Converted amounts (≈) assume the structure as drawn.
How the values were obtained:
[1] = Acute Toxicity Study; details: in vivo; preliminary screening, Bliss statistical method
Procedure: The acute toxicity experiments were carried out according to the methods disclosed in the book of Modern Pharmacological Methods, edited chiefly by Zhang Jun-Tian.

[2] = tested on: Colo320 human rectal cancer cells; assay: Tumor cell inhibition ratio, CCK-8 kit, Colo320; details: COLO 320, read-out: Antiproliferative effect (inhibition ratio) Colo320
Text: (§3) The inhibitory activities of the compounds on tumor cells in vitro

[3] = tested on: Hut78 T-Lymphocytic Leukemia cells; assay: Tumor cell inhibition ratio, CCK-8 kit, Hut78; details: Homo sapiens, HuT78, read-out: Antiproliferative effect (inhibition ratio) Hut-78
Text: as §3

[4] = tested on: PANC-1 human pancreatic cancer cells; assay: Tumor cell inhibition ratio, CCK-8 kit, PANC-1; details: PANC-1, read-out: Antiproliferative effect (inhibition ratio) PANC-1
Text: as §3

[5] = tested on: Colo320 human rectal cancer cells; assay: Tumor cell IC50, CCK-8 kit, Colo320; assay type: cell-based; details: COLO 320
Text: (§1) The inhibitory activities of the compounds on tumor cells (IC50) in vitro
(§2) The IC50 (IC50, unit: μg/ml) values of the compounds on Hut78 T-Lymphocytic Leukemia cells, Jurkat E6-1 human T-cell lymphoma, PANC-1 human pancreatic cancer cells, A549 human lung cancer cells, K562 human chronicity marrow leukemic cells, Hep3B2. 1-7 human hepatoma carcinoma cells, MDA-MB-435s human breast carcinoma cells, Colo320 human rectal cancer cells, PC-3 human carcinoma of prostate, and HepG2 human hepatoma carcinoma cells were determined using a CCK-8 kit. Erlotinib hydrochloride was used as the positive control drug.

[6] = tested on: Hep3B2.1-7 human hepatoma carcinoma cells; assay: Tumor cell inhibition ratio, CCK-8 kit, Hep3B; details: read-out: Antiproliferative effect (inhibition ratio) Hep3B
Text: as §3

[7] = tested on: Jurkat E6-1 human T-cell lymphoma; assay: Tumor cell IC50, CCK-8 kit, Jurkat E6-1; assay type: cell-based; details: E6-1 cells
Text: as §1, §2

[8] = tested on: PC-3 human carcinoma of prostate; assay: Tumor cell inhibition ratio, CCK-8 kit, PC-3; details: read-out: Antiproliferative effect (inhibition ratio) PC-3
Text: as §3

[9] = tested on: A549 human lung cancer cells; assay: Tumor cell inhibition ratio, CCK-8 kit, A549; details: A549, read-out: Antiproliferative effect (inhibition ratio) A549
Text: as §3

[10] = tested on: K562 human chronicity marrow leukemic cells; assay: Tumor cell IC50, CCK-8 kit, K562; assay type: cell-based
Text: as §1, §2

[11] = molecular target: T1, aurora kinase B (Homo sapiens, UniProt Q96GD4); assay: Aurora kinase B inhibition in vitro (Invitrogen aurora kinase screening kit PV3174); assay type: biochemical
T1 construct: purchased Invitrogen PV3174

[12] = tested on: A549 human lung cancer cells; assay: Tumor cell IC50, CCK-8 kit, A549; assay type: cell-based
Text: as §1, §2

[13] = molecular target: EGFR tyrosine kinase (Homo sapiens, UniProt P00533); assay: EGFR tyrosine kinase inhibition in vitro (Invitrogen EGFR inhibitor screening kit PV3193)
Text: The inhibitory activities of EGFR tyrosine kinase in vitro
Erlotinib hydrochloride was used as a positive control drug.

[14] = tested on: Hep3B2. 1-7 human hepatoma carcinoma cells; assay: Tumor cell IC50, CCK-8 kit, Hep3B; assay type: cell-based
Text: as §1, §2

[15] = tested on: Jurkat E6-1 human T-cell lymphoma; assay: Tumor cell inhibition ratio, CCK-8 kit, Jurkat E6-1; details: Jurkat E6.1, read-out: Antiproliferative effect (inhibition ratio) E6-1
Text: as §3

[16] = tested on: K562 human chronicity marrow leukemic cells; assay: Tumor cell inhibition ratio, CCK-8 kit, K562; details: K562, read-out: Antiproliferative effect (inhibition ratio) K562
Text: as §3

[17] = tested on: PANC-1 human pancreatic cancer cells; assay: Tumor cell IC50, CCK-8 kit, PANC-1; assay type: cell-based; details: PANC-1 cells
Text: as §1, §2

[18] = tested on: PC-3 human carcinoma of prostate; assay: Tumor cell IC50, CCK-8 kit, PC-3; assay type: cell-based; details: PC-3 cells
Text: as §1, §2

[19] = tested on: MDA-MB-435s human breast carcinoma cells; assay: Tumor cell IC50, CCK-8 kit, MDA-MB-435s; assay type: cell-based; details: 435s cells
Text: as §1, §2

[20] = tested on: Hut78 T-Lymphocytic Leukemia cells; assay: Tumor cell IC50, CCK-8 kit, Hut78; assay type: cell-based; details: Homo sapiens, Hut-78 cells
Text: as §1, §2

[21] = tested on: MDA-MB-435s human breast carcinoma cells; assay: Tumor cell inhibition ratio, CCK-8 kit, MDA-MB-435s; details: read-out: Antiproliferative effect (inhibition ratio) 435s
Text: as §3

Chain of EGFR tyrosine kinase (P00533 25-1210): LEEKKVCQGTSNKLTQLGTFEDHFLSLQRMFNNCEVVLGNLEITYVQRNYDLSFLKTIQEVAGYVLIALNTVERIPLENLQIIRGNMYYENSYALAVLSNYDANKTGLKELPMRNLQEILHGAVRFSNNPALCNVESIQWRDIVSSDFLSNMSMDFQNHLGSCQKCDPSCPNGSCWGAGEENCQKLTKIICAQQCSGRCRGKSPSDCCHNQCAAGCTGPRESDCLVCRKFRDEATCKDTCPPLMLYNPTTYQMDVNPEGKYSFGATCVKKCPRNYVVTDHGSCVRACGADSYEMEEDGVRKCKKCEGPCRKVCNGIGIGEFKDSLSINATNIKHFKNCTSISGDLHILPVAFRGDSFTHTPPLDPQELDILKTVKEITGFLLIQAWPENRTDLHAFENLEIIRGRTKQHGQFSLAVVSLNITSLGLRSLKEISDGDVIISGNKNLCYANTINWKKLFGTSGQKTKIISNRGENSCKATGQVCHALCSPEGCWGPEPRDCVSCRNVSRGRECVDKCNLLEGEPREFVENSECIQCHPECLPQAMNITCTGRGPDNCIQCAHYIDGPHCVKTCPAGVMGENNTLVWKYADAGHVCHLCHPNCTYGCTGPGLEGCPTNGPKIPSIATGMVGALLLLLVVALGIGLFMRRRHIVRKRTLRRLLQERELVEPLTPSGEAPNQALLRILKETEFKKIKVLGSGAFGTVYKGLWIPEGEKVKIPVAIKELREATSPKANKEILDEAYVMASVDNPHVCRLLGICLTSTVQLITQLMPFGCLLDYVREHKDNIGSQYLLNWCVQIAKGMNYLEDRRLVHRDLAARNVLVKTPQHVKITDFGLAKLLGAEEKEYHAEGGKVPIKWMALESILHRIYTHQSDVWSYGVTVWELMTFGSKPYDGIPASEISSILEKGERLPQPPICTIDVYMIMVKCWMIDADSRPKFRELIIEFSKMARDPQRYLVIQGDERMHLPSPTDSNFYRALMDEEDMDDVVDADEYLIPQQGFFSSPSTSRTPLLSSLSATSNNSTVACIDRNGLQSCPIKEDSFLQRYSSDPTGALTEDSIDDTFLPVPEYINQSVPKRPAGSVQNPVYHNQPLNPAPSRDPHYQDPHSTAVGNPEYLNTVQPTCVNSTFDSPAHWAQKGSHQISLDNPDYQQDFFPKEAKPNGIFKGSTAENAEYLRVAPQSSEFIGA
T1 sequence (Q96GD4 whole entry): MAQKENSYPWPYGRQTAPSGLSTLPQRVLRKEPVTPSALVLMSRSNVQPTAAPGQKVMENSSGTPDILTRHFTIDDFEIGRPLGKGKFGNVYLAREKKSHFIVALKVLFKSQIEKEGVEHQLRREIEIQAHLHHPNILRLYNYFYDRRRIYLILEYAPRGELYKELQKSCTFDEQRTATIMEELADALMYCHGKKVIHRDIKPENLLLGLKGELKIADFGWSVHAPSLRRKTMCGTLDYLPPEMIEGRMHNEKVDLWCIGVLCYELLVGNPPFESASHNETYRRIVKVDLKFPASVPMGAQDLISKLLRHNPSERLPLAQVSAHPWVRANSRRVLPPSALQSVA

**Q.** With `CS(=O)(=O)CCNCc1ccc(-c2ccc3c(c2)C2=Nc4ccc(OCc5cccc(F)c5)c(Cl)c4CN2C=N3)o1` [Compound V-33, N-((5-(9-chloro-10-(3-fluorobenzyloxy)-8H-quinazolino[4,3-b]quinazoline-2-yl)furan-2-yl)methyl)-2-(methylsulfonyl)ethylamine] as the molecule, how does the LD50 [1] read?
**A.** Its LD50 is 2840 mg/kg.

**Q.** What about the inhibition at 10 µM [2] of the same molecule?
**A.** The inhibition at 10 µM was 61.6%.

**Q.** What about the inhibition at 100 µM [2] of the same molecule?
**A.** The inhibition at 100 µM was 96.3%.

**Q.** What about the inhibition at 10 µM [3] of the same molecule?
**A.** The inhibition at 10 µM was 61%.

**Q.** What about the inhibition at 100 µM [3] of the same molecule?
**A.** Its inhibition at 100 µM is 92.8%.

**Q.** What about the inhibition at 10 µM [4] of the same molecule?
**A.** The inhibition at 10 µM was 50.3%.

**Q.** And the inhibition at 100 µM [4]?
**A.** Its inhibition at 100 µM is 88%.

**Q.** And the IC50 [5]?
**A.** Its IC50 is 7.83 µg/mL (≈ 13.2 µM).

**Q.** And the inhibition at 10 µM [6]?
**A.** The inhibition at 10 µM was 51.3%.

**Q.** And the inhibition at 100 µM [6]?
**A.** The inhibition at 100 µM was 86.5%.

**Q.** What about the IC50 [7] of the same molecule?
**A.** The IC50 was 15.4 µg/mL (≈ 25.9 µM).

**Q.** What about the inhibition at 10 µM [8] of the same molecule?
**A.** Its inhibition at 10 µM is 16.5%.

**Q.** And the inhibition at 100 µM [8]?
**A.** The inhibition at 100 µM was 78.2%.

**Q.** What about the inhibition at 10 µM [9] of the same molecule?
**A.** The inhibition at 10 µM was 48.1%.

**Q.** What about the inhibition at 100 µM [9] of the same molecule?
**A.** Its inhibition at 100 µM is 86.1%.

**Q.** And the IC50 [10]?
**A.** Its IC50 is 62.6 µg/mL (≈ 105 µM).

**Q.** And the “The inhibition ratio of the compound on Aurora B(%)” value ([11]; 40 μM)?
**A.** The value was 54.6%.

**Q.** And the “The inhibition ratio of the compound on Aurora B(%)” value ([11]; 200 μM)?
**A.** The value was 93.7%.

**Q.** And the IC50 [12]?
**A.** Its IC50 is 0.05 µg/mL (≈ 0.0843 µM).

**Q.** What about the “The inhibition ratio of the compound on EGFR(%)” value ([13]; 40 μM) of the same molecule?
**A.** The value was 64.3%.

**Q.** And the “The inhibition ratio of the compound on EGFR(%)” value ([13]; 200 μM)?
**A.** Its value is 97.9%.

**Q.** And the IC50 [14]?
**A.** The IC50 was 22.7 µg/mL (≈ 38.3 µM).

**Q.** And the inhibition at 10 µM [15]?
**A.** The inhibition at 10 µM was 41.6%.

**Q.** What about the inhibition at 100 µM [15] of the same molecule?
**A.** The inhibition at 100 µM was 90.8%.

**Q.** And the inhibition at 10 µM [16]?
**A.** The inhibition at 10 µM was 40.5%.

**Q.** And the inhibition at 100 µM [16]?
**A.** The inhibition at 100 µM was 86%.

**Q.** And the IC50 [17]?
**A.** The IC50 was 1.97 µg/mL (≈ 3.32 µM).

**Q.** And the IC50 [18]?
**A.** Its IC50 is 40.7 µg/mL (≈ 68.6 µM).

**Q.** And the IC50 [19]?
**A.** Its IC50 is 10.3 µg/mL (≈ 17.4 µM).

**Q.** And the IC50 [20]?
**A.** Its IC50 is 13.4 µg/mL (≈ 22.6 µM).

**Q.** What about the inhibition at 10 µM [21] of the same molecule?
**A.** Its inhibition at 10 µM is 62.7%.

**Q.** And the inhibition at 100 µM [21]?
**A.** Its inhibition at 100 µM is 99.5%.
